“And” between values parts separate entries of the source, which are not always exact repeats. Equal entries are not always repeated. Where two headings read alike, the source gives them in different places.
Tests used:
[1] = Monkey pharmacokinetic study; conditions: monkey; 5mg/kg PO vs 1.0mg/kg IV
[2] = 300 mg/kg dose group
CYP3A4/5 = CYP3A4/5 (Homo sapiens, UniProt P08684); assay: Reversible CYP inhibition in human liver microsomes
FIPV 3CL^pro = FIPV 3CL^pro (Feline coronavirus, UniProt Q98VG9); format: biochemical
FIPV 3CL^pro, sequence (Q98VG9 2904-3205): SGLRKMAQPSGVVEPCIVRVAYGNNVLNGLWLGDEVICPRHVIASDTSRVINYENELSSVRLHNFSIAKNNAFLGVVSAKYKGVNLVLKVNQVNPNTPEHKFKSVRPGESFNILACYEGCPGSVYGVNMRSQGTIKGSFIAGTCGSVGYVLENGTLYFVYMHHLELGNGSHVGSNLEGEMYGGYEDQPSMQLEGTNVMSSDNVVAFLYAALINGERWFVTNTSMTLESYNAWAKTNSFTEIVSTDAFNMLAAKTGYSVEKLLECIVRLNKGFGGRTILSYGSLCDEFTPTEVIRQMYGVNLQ

NL63-CoV 3CL^pro = NL63-CoV 3CL^pro (Human coronavirus NL63, UniProt P0C6X5); format: biochemical
NL63-CoV 3CL^pro, sequence (P0C6X5 2940-3242): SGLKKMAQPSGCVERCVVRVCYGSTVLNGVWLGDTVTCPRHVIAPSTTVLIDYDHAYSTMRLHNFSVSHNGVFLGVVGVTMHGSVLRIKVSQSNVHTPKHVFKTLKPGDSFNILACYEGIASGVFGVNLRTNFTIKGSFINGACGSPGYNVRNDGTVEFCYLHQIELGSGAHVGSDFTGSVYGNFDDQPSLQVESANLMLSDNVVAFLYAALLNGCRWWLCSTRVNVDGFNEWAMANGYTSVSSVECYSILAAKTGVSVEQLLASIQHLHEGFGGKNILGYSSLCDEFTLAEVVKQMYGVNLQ

Human Caspase 2 = Human Caspase 2 (Homo sapiens, UniProt P42575); assay: Mammalian protease panel; format: biochemical
Human Caspase 2, sequence (P42575 170-325 limits assumed): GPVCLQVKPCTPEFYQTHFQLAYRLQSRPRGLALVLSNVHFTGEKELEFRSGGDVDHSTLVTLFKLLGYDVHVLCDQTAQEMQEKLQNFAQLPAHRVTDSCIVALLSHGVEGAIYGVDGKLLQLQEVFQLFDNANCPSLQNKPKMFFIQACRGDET
Human Caspase 2, sequence (P42575 348-452 limits assumed): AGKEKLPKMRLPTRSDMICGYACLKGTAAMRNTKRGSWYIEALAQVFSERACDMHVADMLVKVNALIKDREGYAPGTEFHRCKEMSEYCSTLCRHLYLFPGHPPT

SARS-CoV-2 = tested on: SARS-CoV-2; design: method as in earlier work; conditions: preliminary data; read-out: unbound EC90; cited from earlier work
HKU4-CoV 3CL^pro = HKU4-CoV 3CL^pro (Bat coronavirus HKU4, UniProt P0C6W3); format: biochemical; conditions: for Initial Velocity: triplicate, listed as Compound F2
HKU4-CoV 3CL^pro, sequence (P0C6W3 3292-3597 limits assumed): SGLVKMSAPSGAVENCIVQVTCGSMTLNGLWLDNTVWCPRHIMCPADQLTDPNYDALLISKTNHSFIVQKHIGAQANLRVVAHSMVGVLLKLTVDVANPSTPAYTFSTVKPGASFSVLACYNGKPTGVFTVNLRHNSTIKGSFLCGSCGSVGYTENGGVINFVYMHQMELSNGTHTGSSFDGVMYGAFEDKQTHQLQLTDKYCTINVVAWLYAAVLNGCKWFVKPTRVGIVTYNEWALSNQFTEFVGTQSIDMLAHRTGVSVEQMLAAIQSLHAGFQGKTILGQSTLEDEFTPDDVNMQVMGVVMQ

CYP2B6 = molecular target: T1, CYP2B6 (Homo sapiens, UniProt P20813); assay: Reversible CYP inhibition in human liver microsomes; format: in vitro ADME; conditions: for activity at 0.1 µM: pH 7.4, CYP 2B6, 0.1 µM; for activity at 0.1 µM / activity at 0.214 µM / activity at 0.979 µM / activity at 2.09 µM / activity at 4.48 µM / activity at 20.5 µM / activity at 43.8 µM / activity at 93.5 µM / activity at 200 µM: read-out: Percent of Control Activity; for activity at 0.214 µM: pH 7.4, CYP 2B6, 0.214 µM; for activity at 0.979 µM: pH 7.4, CYP 2B6, 0.979 µM; for activity at 2.09 µM: pH 7.4, CYP 2B6, 2.09 µM; for activity at 4.48 µM: pH 7.4, CYP 2B6, 4.48 µM; for activity at 20.5 µM: pH 7.4, CYP 2B6, 20.5 µM; for activity at 43.8 µM: pH 7.4, CYP 2B6, 43.8 µM; for activity at 93.5 µM: pH 7.4, CYP 2B6, 93.5 µM; for activity at 200 µM: pH 7.4, CYP 2B6, 200 µM
T1 sequence (P20813 1-491): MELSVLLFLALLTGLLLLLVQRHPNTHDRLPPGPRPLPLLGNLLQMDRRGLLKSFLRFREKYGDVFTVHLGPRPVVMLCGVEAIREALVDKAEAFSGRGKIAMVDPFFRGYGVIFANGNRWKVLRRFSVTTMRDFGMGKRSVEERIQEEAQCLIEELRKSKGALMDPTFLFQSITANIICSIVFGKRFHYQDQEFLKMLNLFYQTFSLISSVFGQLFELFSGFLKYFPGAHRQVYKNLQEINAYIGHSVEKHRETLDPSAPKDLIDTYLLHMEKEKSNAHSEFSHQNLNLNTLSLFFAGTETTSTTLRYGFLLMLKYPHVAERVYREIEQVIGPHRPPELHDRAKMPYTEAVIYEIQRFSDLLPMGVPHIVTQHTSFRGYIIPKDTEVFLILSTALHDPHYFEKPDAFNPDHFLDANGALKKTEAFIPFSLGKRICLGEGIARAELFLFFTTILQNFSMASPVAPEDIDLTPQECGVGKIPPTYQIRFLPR

[3] = human, human liver microsomes, 30-Minute Preincubation
[4] = human, human liver microsomes, Zero-Minute Preincubation

CYP3A4/5, sequence (P08684 whole entry): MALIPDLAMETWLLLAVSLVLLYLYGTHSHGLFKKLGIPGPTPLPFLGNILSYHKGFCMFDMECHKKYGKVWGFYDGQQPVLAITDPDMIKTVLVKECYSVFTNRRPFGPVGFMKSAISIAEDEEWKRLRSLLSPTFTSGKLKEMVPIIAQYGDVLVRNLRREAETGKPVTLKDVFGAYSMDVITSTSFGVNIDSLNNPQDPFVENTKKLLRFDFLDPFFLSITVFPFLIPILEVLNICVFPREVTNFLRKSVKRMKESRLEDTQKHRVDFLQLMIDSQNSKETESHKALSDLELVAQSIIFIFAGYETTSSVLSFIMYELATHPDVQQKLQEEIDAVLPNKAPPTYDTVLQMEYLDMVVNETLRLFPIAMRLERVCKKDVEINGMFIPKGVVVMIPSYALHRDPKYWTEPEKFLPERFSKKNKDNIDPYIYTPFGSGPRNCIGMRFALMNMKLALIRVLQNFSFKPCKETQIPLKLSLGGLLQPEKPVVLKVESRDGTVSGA

Compound: COc1cccc2[nH]c(C(=O)N[C@@H](CC(C)C)C(=O)N[C@@H](C[C@@H]3CCNC3=O)C(=O)CO)cc12 [PF-00835231]
- Oral F% [1]: < 0.1% and < 2%
- Cmin unbound exposure [2]: 1700 nM
- Ki (CYP3A4/5): 108000 nM
- Ki (FIPV 3CL^pro): 0.12 ± 0.1 nM
- Ki (NL63-CoV 3CL^pro): 0.77 ± 0.52 nM
- IC50 (Human Caspase 2): > 33000 nM
- EC90 (SARS-CoV-2): < 500 nM
- Initial Velocity (HKU4-CoV 3CL^pro; [Compound F2] 1.95312 nM): 0.9709 and 0.9956 and 0.9685
- Initial Velocity (HKU4-CoV 3CL^pro; [Compound F2] 3.90625 nM): 0.9706 and 0.9741 and 0.9413
- Initial Velocity (HKU4-CoV 3CL^pro; [Compound F2] 7.8125 nM): 0.919 and 0.9344 and 0.9288
- Initial Velocity (HKU4-CoV 3CL^pro; [Compound F2] 20 nM): 0.7972 and 0.7875 and 0.7775
- Initial Velocity (HKU4-CoV 3CL^pro; [Compound F2] 30 nM): 0.5859 and 0.5869 and 0.5914
- Initial Velocity (HKU4-CoV 3CL^pro; [Compound F2] 40 nM): 0.342 and 0.3124 and 0.3465
- Initial Velocity (HKU4-CoV 3CL^pro; [Compound F2] 50 nM): 0.1072 and 0.09971 and 0.1255
- Initial Velocity (HKU4-CoV 3CL^pro; [Compound F2] 60 nM): 0.03996 and 0.02999 and 0.0446
- Initial Velocity (HKU4-CoV 3CL^pro; [Compound F2] 80 nM): 0.0186 and 0.01858 and 0.02101
- Initial Velocity (HKU4-CoV 3CL^pro; [Compound F2] 100 nM): 0.01432 and 0.02363 and 0.01328
- Initial Velocity (HKU4-CoV 3CL^pro; [Compound F2] 400 nM): 0.004976 and 0.003329 and 0.004577
- Ki (HKU4-CoV 3CL^pro; mean ± SEM): 0.034 ± 0.079 nM
- CC50 (in vitro; African green monkey, CC50): > 100000 nM
- CC50 (in vitro; monkey, CC50 GeoMean (95% CI)): > 100000 nM
- Percent of Control Activity (CYP2B6; CYP 2B6, 0.1 µM, 30-Minute Preincubation, 0.1 µM): 95.8%
- Percent of Control Activity (CYP2B6; CYP 2B6, 0.1 µM, Zero-Minute Preincubation, 0.1 µM): 102.2% and 99.6%
- Percent of Control Activity (CYP2B6; CYP 2B6, 0.214 µM, 30-Minute Preincubation, 0.214 µM): 99.2% and 94.6%
- Percent of Control Activity (CYP2B6; CYP 2B6, 0.214 µM, Zero-Minute Preincubation, 0.214 µM): 97.5% and 98.9%
- Percent of Control Activity (CYP2B6; CYP 2B6, 0.979 µM, 30-Minute Preincubation, 0.979 µM): 92.8% and 97.7%
- Percent of Control Activity (CYP2B6; CYP 2B6, 0.979 µM, Zero-Minute Preincubation, 0.979 µM): 99.5% and 102.1%
- Percent of Control Activity (CYP2B6; CYP 2B6, 2.09 µM, Zero-Minute Preincubation, 2.09 µM): 101.6%
- Percent of Control Activity (CYP2B6; CYP 2B6, 4.48 µM, 30-Minute Preincubation, 4.48 µM): 102.3% and 98.3%
- Percent of Control Activity (CYP2B6; CYP 2B6, 4.48 µM, Zero-Minute Preincubation, 4.48 µM): 96.6%
- Percent of Control Activity (CYP2B6; CYP 2B6, 20.5 µM, 30-Minute Preincubation, 20.5 µM): 88.5% and 89.3%
- Percent of Control Activity (CYP2B6; CYP 2B6, 20.5 µM, Zero-Minute Preincubation, 20.5 µM): 90.2% and 87.9%
- Percent of Control Activity (CYP2B6; CYP 2B6, 43.8 µM, 30-Minute Preincubation, 43.8 µM): 89.3% and 86.6%
- Percent of Control Activity (CYP2B6; CYP 2B6, 43.8 µM, Zero-Minute Preincubation, 43.8 µM): 84.2% and 79.6%
- Percent of Control Activity (CYP2B6; CYP 2B6, 93.5 µM, 30-Minute Preincubation, 93.5 µM): 69.4% and 77.3%
- Percent of Control Activity (CYP2B6; CYP 2B6, 93.5 µM, Zero-Minute Preincubation, 93.5 µM): 73.2% and 72.0%
- Percent of Control Activity (CYP2B6; CYP 2B6, 200 µM, 30-Minute Preincubation, 200 µM): 59.5% and 60.0%
- Percent of Control Activity (CYP2B6; CYP 2B6, 200 µM, Zero-Minute Preincubation, 200 µM): 54.6% and 55.4%
- activity at 0.1 µM (CYP2B6; [3]): 102%
- activity at 0.1 µM (CYP2B6; [4]): 104%
- activity at 0.214 µM (CYP2B6; [3]): 103%
- activity at 0.214 µM (CYP2B6; [4]): 103%
- activity at 0.979 µM (CYP2B6; [3]): 100%
- activity at 0.979 µM (CYP2B6; [4]): 105%
- activity at 2.09 µM (CYP2B6; [3]): 101%
- activity at 2.09 µM (CYP2B6; [4]): 105%
- activity at 4.48 µM (CYP2B6; [3]): 103%
- activity at 4.48 µM (CYP2B6; [4]): 100%
- activity at 20.5 µM (CYP2B6; [3]): 91.3%
- activity at 20.5 µM (CYP2B6; [4]): 91.9%
- activity at 43.8 µM (CYP2B6; [3]): 87.1%
- activity at 43.8 µM (CYP2B6; [4]): 86.4%
- activity at 93.5 µM (CYP2B6; [3]): 73.5%
- activity at 93.5 µM (CYP2B6; [4]): 73.7%
- activity at 200 µM (CYP2B6; [3]): 59%
- activity at 200 µM (CYP2B6; [4]): 55.5%
- IC50 (CYP2B6; human, human liver microsomes, pH 7.4, probe bupropion (hydroxylation), at approximately KM): > 200000 nM
